Read-outs that look alike come from different tables or passages of the source.
Legend:
[1] = biological target: T1, PG + 5X 4-HNE treated rL-FABP (Mus musculus, UniProt P12710); assay: ANS equilibrium binding to PG + 5X 4-HNE treated rL-FABP
T1 construct: made in house; host or cells: Escherichia coli BL21 (DE3)
T1 sequence (P12710 1-127): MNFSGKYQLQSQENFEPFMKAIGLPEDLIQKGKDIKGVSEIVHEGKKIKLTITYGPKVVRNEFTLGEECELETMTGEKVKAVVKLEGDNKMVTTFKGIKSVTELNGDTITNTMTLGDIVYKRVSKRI
Experimental: (§1) Steady-state fluorescence spectra were measured using a HORIBA JOBIN YVON FluoroMax-3 Fluorometer (Edison, NJ USA). The binding of ANS to rL-FABP was monitored following excitation at 370 nm and emission at 475 nm, with slits set at 2 and 4 nm, respectively. Measurements were taken at ambient temperature in a 0.7 mL fluorescence cuvette (Starna Cells, Atascadero, CA). Equilibrium binding studies were conducted with saturating concentrations of ANS according to previous studies, [30] with slight modifications. Briefly, ANS (0–45 µM) was titrated into 1 µM rL-FABP in 50 mM tricine buffer (pH 8.0), mixed for 30 seconds, and emission spectra were recorded. rL-FABP was either treated with 4-HNE (0.1X [5.93 µM], 1X [53.93 µM], or 5X [245.09 µM]) or the arginine blocker phenylglyoxal (PG) (10 mM), or a combination of the two (PG +5X). Following treatments, protein was dialyzed overnight in tricine buffer, pH 8.0. Preparation of ANS was conducted according to Denicola et al., where it was solubilized in absolute ethanol and quantified at Abs372 with an extinction coefficient of 8,000 cm^−1·M^−1 prior to use.
(§2) Statistical analysis and generation of graphs was performed using GraphPad Prism (v 4.02; GraphPad Software, San Diego, CA) and SigmaPlot (v10.0; Systat Software, San Jose, CA). Statistical differences between control and treated samples were assessed using a paired Student’s t test or a one-way ANOVA with Tukey’s post-test. Differences were considered significant if p<0.05. Nonlinear regression (curve fit) analysis was performed using a two-site binding hyperbola (eq 1), where ΔF is the enhancement in fluorescence intensity upon the binding of ANS to L-FABP to a point of saturation (Bmax). [drawing 1] (1)

4-HNE modified rL-FABP = biological target: T2, 4-HNE modified rL-FABP (Mus musculus, UniProt P12710); assay: ANS equilibrium binding to 4-HNE treated rL-FABP (fluorescence)
T2 construct: made in house; host or cells: Escherichia coli BL21 (DE3)
T2 sequence (P12710 1-127): T1 sequence (P12710 1-127)
Experimental: as §1, §2

rL-FABP [2] = biological target: T3, rL-FABP (Mus musculus, UniProt P12710); assay: ANS equilibrium binding to native rL-FABP (fluorescence)
T3 construct: made in house; host or cells: Escherichia coli BL21 (DE3)
T3 sequence (P12710 1-127): T1 sequence (P12710 1-127)
Experimental: as §1, §2

PG treated rL-FABP = biological target: T4, PG treated rL-FABP (Mus musculus, UniProt P12710); assay: ANS equilibrium binding to phenylglyoxal (PG) treated rL-FABP
T4 construct: made in house; host or cells: Escherichia coli BL21 (DE3)
T4 sequence (P12710 1-127): T1 sequence (P12710 1-127)
Experimental: as §1, §2

rL-FABP [3] = biological target: T3, rL-FABP; assay: Displacement of ANS by fatty acids, WT rL-FABP; assay type: binding; conditions: for bi (counts inhibitable) / Ki: 45 µM ANS, 1 µM protein; for Ki: read-out: ki (inhibition constant)
Experimental: (§3) Lipid displacement assays were adapted from previous publications, [30]. Briefly, lipids were used to displace ANS bound to rL-FABP to assess how 4-HNE modification affects affinity towards more biologic ligands. Lipid stocks were diluted in absolute ethanol (10 mM, 5 mM, 1 mM, 0.1 mM) and prepared in a nitrogen gas chamber. Using conditions similar to ANS binding, increasing concentrations of FAs [stearate (SA), oleate (OA), and LA] were titrated into a pre-equilibrated solution containing 45 µM ANS, 1 µM r-LFABP, and 50 mM tricine (pH 8.0). The sample was mixed for an additional 30 seconds and the excitation and emission of ANS was measured as mentioned, where the loss of fluorescence indicates affinity towards the lipid.
(§4) For the displacement assays, one-site inhibition analysis of the data was utilized based on the fit of the data (instead of a two-site inhibition analysis) (eq2). Fluorescence counts that are inhibitable are denoted as bi, and residual counts are br. The concentration of OA, SA or LA is denoted as [FA]. The Hill constant, η, indicates the cooperativity between the binding sites, where if η >1 the sites are positively cooperative, η <1 the site are negatively cooperative, and if η = 1 the sites are non-cooperative. [drawing 2] (2)

4-HNE adducted rL-FABP = biological target: T5, 4-HNE adducted rL-FABP (Mus musculus, UniProt P12710); assay: Displacement of ANS by fatty acids, 1X 4-HNE treated rL-FABP; assay type: binding; conditions: for bi (counts inhibitable) / Ki: 1X 4-HNE (53.95 µM) treated rL-FABP; for Ki: read-out: ki (inhibition constant); for br (counts residual) / n (hill coefficient): 1X 4-HNE treated rL-FABP; for reduction of maximal binding to the FA by 4-HNE: 1X 4-HNE treated versus WT rL-FABP
T5 construct: made in house; host or cells: Escherichia coli BL21 (DE3)
T5 sequence (P12710 1-127): T1 sequence (P12710 1-127)
Experimental: as §3, §4

L-FABP [4] = conditions: following ethanol consumption in rats; cited from earlier work
FABP1 = conditions: 4 week ramped ethanol feeding regimen; cited from earlier work
L-FABP [5] = test system: L-FABP
Description: All protocols were approved by the Institutional Animal Care and Use Committee (IACUC) at the University of Colorado Anschutz Medical Campus. Male C57Bl/6J mice were fed a modified Lieber-DeCarli Diet (BioServ, Frenchtown, NJ) consisting of 45% fat-derived calories and 15% protein-derived calories with the remaining caloric content derived from either ethanol or maltose-dextrin. Mice were fed for a period of 6 weeks according to previous laboratory studies, [20]. At termination, the liver was harvested for whole tissue and histological evaluation as previously described, [21]. Subcellular fractions were isolated from whole liver tissue using sucrose gradient centrifugation.
200 ug of whole cell homogenates from both control and ethanol mice (n = 6/group) were incubated with 5 ug of mouse monoclonal ubiquitin antibody (Abcam, cat# ab411) for 2 hours at 4°C on a rotator to allow ubiquitin protein to bind to antibody. 100 ul of a 50% Protein G slurry (prepared and stored in 0.02% sodium azide and PBS, pH 7.4) was added to the reaction and incubated at 4°C rotating overnight. Samples were washed 5×5 minutes in PBST (PBS +[…]) and denatured in SDS-PAGE loading buffer at 95°C for 5 minutes. Immunoprecipitated protein was separated via SDS-PAGE and transferred to PVDF, and immunoblotted for L-FABP (Abcam, cat # 7847). Density of ubiquitinated bands were normalized to levels of L-FABP/β-Actin determined by immunoblotting.
Total RNA was isolated from […] of frozen tissue from control and ethanol-fed mice (n = 3) using RNeasy Mini Kits (Qiagen,Valencia, CA).

[6] = rL-FABP treated with 5X 4-HNE + PG
[7] = rL-FABP treated with 1X 4-HNE (53.93 µM)
[8] = rL-FABP treated with 5X 4-HNE (245.09 µM)

In the case of `O=S(=O)(O)c1cccc2cccc(Nc3ccccc3)c12` [ANS, 1-Anilinonaphthalene-8-Sulfonic Acid], the Kd [1] is reported as 326 ± 127 nM, the Bmax1 [1, 6] is reported as 168,200±22,900 AFU and the Bmax2 [1, 6] is reported as 512,200±64,500 AFU. For the same compound, the Kd ([1]; read-out: Kd2, rL-FABP treated with 5X 4-HNE + PG) was 27900 ± 10700 nM, the “decrease in the affinity for ANS, secondary binding site” value (4-HNE modified rL-FABP; 5X 4-HNE versus native (kd2)) was roughly 6 fold and the Kd (4-HNE modified rL-FABP; Kd1, rL-FABP treated with 0.1X 4-HNE (5.93 µM)) was 132 ± 74 nM. For the same compound, the Kd (4-HNE modified rL-FABP; Kd1, rL-FABP treated with 1X 4-HNE (53.93 µM)) was 135 ± 74 nM, the Kd (4-HNE modified rL-FABP; Kd1, rL-FABP treated with 5X 4-HNE (245.09 µM)) was 395 ± 101 nM and the Bmax1 (4-HNE modified rL-FABP; rL-FABP treated with 0.1X 4-HNE (5.93 µM)) was 175,500±36,800 AFU. The Bmax1 (4-HNE modified rL-FABP; [7]) was 123,000±28,900 AFU, the Bmax2 (4-HNE modified rL-FABP; [7]) was 548,900±23,700 AFU and the Bmax1 (4-HNE modified rL-FABP; [8]) was 238,100±21,700 AFU. The Bmax2 (4-HNE modified rL-FABP; [8]) was 537,400±81,900 AFU, the Kd (4-HNE modified rL-FABP; read-out: Kd2, rL-FABP treated with 0.1X 4-HNE (5.93 µM)) was 7400 ± 1070 nM and the Kd (4-HNE modified rL-FABP; read-out: Kd2, rL-FABP treated with 1X 4-HNE (53.93 µM)) was 4990 ± 710 nM. The Kd (4-HNE modified rL-FABP; read-out: Kd2, rL-FABP treated with 5X 4-HNE (245.09 µM)) was 34200 ± 13900 nM, the Kd (rL-FABP [2]) was 347 ± 153 nM and the Bmax1 (rL-FABP [2]; native rL-FABP (0X 4-HNE), 1 µM protein, primary site) was 540,200±142,500 AFU. The Bmax2 (rL-FABP [2]; native rL-FABP, secondary site) was 500,500±116,800 AFU, the Kd (rL-FABP [2]; read-out: Kd2, native rL-FABP, secondary site) was 6170 ± 1440 nM and the Kd (PG treated rL-FABP) was 165 ± 111 nM. The Bmax1 (PG treated rL-FABP; rL-FABP treated with PG 10 mM) was 83,200±23,200 AFU, the Bmax2 (PG treated rL-FABP; rL-FABP treated with PG 10 mM) was 446,400±17,500 AFU and the Kd (PG treated rL-FABP; read-out: Kd2, rL-FABP treated with PG 10 mM) was 7180 ± 121 nM.

For `CCCCCCCC/C=C\CCCCCCCC(=O)O` [Oleic Acid], the “br (counts residual)” value (rL-FABP [3]) was 171,600±19,800 AFU, the “n (hill coefficient)” value (rL-FABP [3]) was 2.31±0.29 and the “bi (counts inhibitable)” value (rL-FABP [3]) was 680,200±26,500000 AFU. The Ki (rL-FABP [3]) was 5880 ± 1450 nM, the “bi (counts inhibitable)” value (4-HNE adducted rL-FABP) was 457,600±26,400 AFU and the Ki (4-HNE adducted rL-FABP) was 690 ± 97 nM. The “br (counts residual)” value (4-HNE adducted rL-FABP) was 63,500±19,200 AFU, the “n (hill coefficient)” value (4-HNE adducted rL-FABP) was 0.81±0.0999 and the “reduction of maximal binding to the FA by 4-HNE” value (4-HNE adducted rL-FABP) was 32.7%.

For `CCO` [ethanol], the “decrease in expression of L-FABP” value (L-FABP [4]) is given as roughly 30%, the “decrease in the mRNA of FABP1” value (FABP1) is given as greater than 50% and the “poly-ubiquitinated L-FABP normalized to total L-FABP” value (L-FABP [5]; co-immunoprecipitation, ethanol diet 6 weeks, P<0.001, n = 6) is given as “significant increase”. For the same compound, the “decrease in FABP1 mRNA (RT-PCR)” value (L-FABP [5]; ethanol diet 6 weeks versus control) was 1.6 fold, the “relative expression of FABP1” value (L-FABP [5]; ethanol livers, control 1.00±0.084, P<0.05, n = 3) was 0.617±0.069 and the “reduction in L-FABP protein (1D Western Blot)” value (L-FABP [5]; whole cell lysates, ethanol diet 6 weeks versus control, P<0.001, n = 6) was roughly 80%.

In the case of `CCCCCCCCCCCCCCCCCC(=O)O` [Stearic Acid], the “br (counts residual)” value (rL-FABP [3]) is reported as 145,800±14,400 AFU, the “n (hill coefficient)” value (rL-FABP [3]) is reported as 2.75±0.264 and the “bi (counts inhibitable)” value (rL-FABP [3]) is reported as 698,800±19,400 AFU. For the same compound, the Ki (rL-FABP [3]) was 1190 ± 130 nM, the “bi (counts inhibitable)” value (4-HNE adducted rL-FABP) was 411,800±36,800 AFU and the Ki (4-HNE adducted rL-FABP) was 4410 ± 1660 nM. For the same compound, the “br (counts residual)” value (4-HNE adducted rL-FABP) was 81,300±30,500 AFU, the “n (hill coefficient)” value (4-HNE adducted rL-FABP) was 2.74±0.37 and the “reduction of maximal binding to the FA by 4-HNE” value (4-HNE adducted rL-FABP) was 41%.
